Experimental data: US8288419B2, “Aminopyrazole derivatives” (Actelion Pharmaceuticals, Ltd, priority 2007, dated 2012)

Target: T1, recombinant human ALX receptor (Homo sapiens, UniProt P25090)
T1 construct: expressed in transfected cells; host or cells: HEK293 (HEK293-hALXR-Gα16)
T1 sequence (P25090 1-351): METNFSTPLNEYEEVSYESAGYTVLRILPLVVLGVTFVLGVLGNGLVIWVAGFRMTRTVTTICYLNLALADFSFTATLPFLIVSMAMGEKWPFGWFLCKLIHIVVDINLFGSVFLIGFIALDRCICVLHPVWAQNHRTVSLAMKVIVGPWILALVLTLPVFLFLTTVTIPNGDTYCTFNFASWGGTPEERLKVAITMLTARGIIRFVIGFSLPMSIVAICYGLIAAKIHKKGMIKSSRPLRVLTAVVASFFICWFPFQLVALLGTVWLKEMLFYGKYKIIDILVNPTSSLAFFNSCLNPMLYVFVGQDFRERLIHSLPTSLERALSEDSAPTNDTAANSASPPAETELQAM
Test: Intracellular calcium measurements (FLIPR), ALX receptor agonistic activity
Type: cell-based
Settings: HEK293-hALXR-Gα16 cells, Fluo-4 calcium fluorescence, normalized to 10 nM WKYMVm
Protocol: The ALX receptor agonistic activity of the compounds of formula (I) is determined in accordance with the following experimental method.
Intracellular Calcium Measurements:
Cells expressing recombinant human ALX receptor and the G-protein Gα16 (HEK293-hALXR-Gα16) were grown to 80% confluency in Growing Medium (GM). […] Stock solutions of test compounds were made up at a concentration of 10 mM in DMSO, and serially diluted in AB to concentrations required for activation dose response curves. WKYMVm (Phoenix Peptides) was used as a reference agonist. A FLIPR384 instrument (Molecular Devices) was operated according to the manufacturer's standard instructions, adding 4 μl of test compound dissolved at 10 mM in DMSO and diluted prior to the experiment in assay buffer to obtain the desired final concentration. Changes in fluorescence were monitored before and after the addition of test compounds at lex=488 nm and lem=540 nm. Emission peak values above base level after compounds addition were exported after base line subtraction. Values were normalized to high-level control (WKYMVm compound, 10 nM final concentration) after subtraction of the base line value (AB addition). The program XLlfit 3.0 (IDBS) was used to fit the data to a single site dose response curve of the equation (A+((B−A)/(1+((C/x)^D)))) and to calculate the EC50 values.

Compound	EC50 [µM]
CC(F)(F)c1ccc(Cn2cc(NC(=O)OCc3ccccc3Cl)cn2)o1 [Example 199, {1-[5-(1,1-Difluoro-ethyl)-furan-2-ylmethyl]-1H-pyrazol-4-yl}-carbamic acid 2-chloro-benzyl ester]	0.033
O=C(Nc1cnn(Cc2ccc(C(=O)C3CC3)o2)c1)OCc1ccccc1Cl [Example 3, [1-(5-Cyclopropanecarbonyl-furan-2-ylmethyl)-1H-pyrazol-4-yl]-carbamic acid 2-chloro-benzyl ester]	0.205
CC(=O)CCCCn1ccc(NC(=O)/C=C/c2ccccc2C(F)(F)F)n1 [Example 181, (E)-N-[1-(5-Oxo-hexyl)-1H-pyrazol-3-yl]-3-(2-trifluoromethyl-phenyl)-acrylamide]	0.067
CC(=O)c1ccc(Cn2cc(NC(=O)c3ncsc3-c3cccc(Cl)c3)cn2)o1 [Example 120, 5-(3-Chloro-phenyl)-thiazole-4-carboxylic acid [1-(5-acetyl-furan-2-ylmethyl)-1H-pyrazol-4-yl]-amide]	0.202
CC(=O)c1ccc(Cn2cc(NC(=O)c3ncoc3-c3ccno3)cn2)o1 [Example 420, 5-Isoxazol-5-yl-oxazole-4-carboxylic acid [1-(5-acetyl-furan-2-ylmethyl)-1H-pyrazol-4-yl]-amide]	0.388
COc1ccc(-c2ocnc2C(=O)Nc2ccn(Cc3ccc(C(C)=O)o3)n2)cc1 [Example 48, 5-(4-Methoxy-phenyl)-oxazole-4-carboxylic acid [1-(5-acetyl-furan-2-ylmethyl)-1H-pyrazol-3-yl]-amide]	0.198
CC(=O)c1ccc(Cn2ccc(NC(=O)OCc3cc(F)c(F)cc3F)n2)o1 [Example 24, [1-(5-Acetyl-furan-2-ylmethyl)-1H-pyrazol-3-yl]-carbamic acid 2,4,5-trifluoro-benzyl ester]	0.033
CC(F)(F)c1csc(Cn2ccc(NC(=O)c3ncoc3-c3ccccc3)n2)n1 [Example 461, 5-Phenyl-oxazole-4-carboxylic acid {1-[4-(1,1-difluoro-ethyl)-thiazol-2-ylmethyl]-1H-pyrazol-3-yl}-amide]	1.09
COc1cccc(/C=C/C(=O)Nc2cnn(Cc3ccc(C(C)=O)o3)c2)c1OC [Example 93, (E)-N-[1-(5-Acetyl-furan-2-ylmethyl)-1H-pyrazol-4-yl]-3-(2,3-dimethoxy-phenyl)-acrylamide]	0.21
CC(=O)c1ccc(Cn2ccc(NC(=O)c3ncoc3-c3cccc(C(=O)OC(C)(C)C)c3)n2)o1 [Example 381, 3-{4-[1-(5-Acetyl-furan-2-ylmethyl)-1H-pyrazol-3-ylcarbamoyl]-oxazol-5-yl}-benzoic acid tert-butyl ester]	0.035
CC(=O)c1ccc(Cn2cc(NC(=O)c3nc(Cc4ccccc4)oc3-c3ccccc3)cn2)o1 [Example 432, 2-Benzyl-5-phenyl-oxazole-4-carboxylic acid [1-(5-acetyl-furan-2-ylmethyl)-1H-pyrazol-4-yl]-amide]	0.2
CC(=O)CCCCn1cc(NC(=O)OCc2nc3ccccc3s2)cn1 [Example 462, [1-(5-Oxo-hexyl)-1H-pyrazol-4-yl]-carbamic acid benzothiazol-2-ylmethyl ester]	0.043
CC(=O)c1ccc(Cn2ccc(NC(=O)c3ncoc3-c3cccc(-c4ccccc4)c3)n2)o1 [Example 356, 5-Biphenyl-3-yl-oxazole-4-carboxylic acid [1-(5-acetyl-furan-2-ylmethyl)-1H-pyrazol-3-yl]-amide]	0.029
CC(=O)c1ncc(Cn2ccc(NC(=O)c3ncoc3-c3ccccc3)n2)o1 [Example 440, 5-Phenyl-oxazole-4-carboxylic acid [1-(2-acetyl-oxazol-5-ylmethyl)-1H-pyrazol-3-yl]-amide]	0.143
CC(=O)c1cnc(Cn2ccc(NC(=O)c3ncoc3-c3ccccc3)n2)o1 [Example 465, 5-Phenyl-oxazole-4-carboxylic acid [1-(5-acetyl-oxazol-2-ylmethyl)-1H-pyrazol-3-yl]-amide]	0.073
CC(=O)c1csc(Cn2ccc(NC(=O)c3ncoc3-c3cccc(N(C)C)c3)n2)n1 [Example 449, 5-(3-Dimethylamino-phenyl)-oxazole-4-carboxylic acid [1-(4-acetyl-thiazol-2-ylmethyl)-1H-pyrazol-3-yl]-amide]	0.182
CC(=O)c1cc(Cn2cc(NC(=O)c3ncoc3-c3ccccc3)cn2)on1 [Example 362, 5-Phenyl-oxazole-4-carboxylic acid [1-(3-acetyl-isoxazol-5-ylmethyl)-1H-pyrazol-4-yl]-amide]	1.47

Compound	EC50 [µM]
CC(F)(F)CCCCn1cc(NC(=O)OCc2ccccc2Cl)cn1 [Example 203, [1-(5,5-Difluoro-hexyl)-1H-pyrazol-4-yl]-carbamic acid 2-chloro-benzyl ester]	0.028
CC(=O)c1ccc(Cn2cc(NC(=O)c3nc(C)sc3-c3cccc(C)c3)cn2)s1 [Example 395, 2-Methyl-5-m-tolyl-thiazole-4-carboxylic acid [1-(5-acetyl-thiophen-2-ylmethyl)-1H-pyrazol-4-yl]-amide]	0.17
CC(F)(F)c1ccc(Cn2ccc(NC(=O)OCc3ccccc3Cl)n2)o1 [Example 197, {1-[5-(1,1-Difluoro-ethyl)-furan-2-ylmethyl]-1H-pyrazol-3-yl}-carbamic acid 2-chloro-benzyl ester]	0.029
CC(=O)c1csc(Cn2cc(NC(=O)OCc3ccccc3Cl)cn2)c1 [Example 442, [1-(4-Acetyl-thiophen-2-ylmethyl)-1H-pyrazol-4-yl]-carbamic acid 2-chloro-benzyl ester]	0.094
CC(=O)c1ccc(Cn2cc(NC(=O)c3nc(C4CC4)oc3-c3ccccc3)cn2)s1 [Example 401, 2-Cyclopropyl-5-phenyl-oxazole-4-carboxylic acid [1-(5-acetyl-thiophen-2-ylmethyl)-1H-pyrazol-4-yl]-amide]	0.049
CS(=O)(=O)c1ccc(Cn2cc(NC(=O)c3ncoc3-c3ccccc3)cn2)o1 [Example 413, 5-Phenyl-oxazole-4-carboxylic acid [1-(5-methanesulfonyl-furan-2-ylmethyl)-1H-pyrazol-4-yl]-amide]	0.486
CC(=O)c1ccc(Cn2cc(NC(=O)OCc3ccc(C(F)(F)F)cc3)cn2)o1 [Example 63, [1-(5-Acetyl-furan-2-ylmethyl)-1H-pyrazol-4-yl]-carbamic acid 4-trifluoromethyl-benzyl ester]	0.053
CC(F)CCCCn1cc(NC(=O)OCc2ccccc2Cl)cn1 (stereo not drawn) [Example 236, [1-(5-Fluoro-hexyl)-1H-pyrazol-4-yl]-carbamic acid 2-chloro-benzyl ester]	0.118
CC(F)(F)CCCCn1ccc(NC(=O)OCc2ccccc2Cl)n1 [Example 201, [1-(5,5-Difluoro-hexyl)-1H-pyrazol-3-yl]-carbamic acid 2-chloro-benzyl ester]	0.154
CC(=O)c1cnc(Cn2cc(NC(=O)c3ncoc3-c3ccccc3)cn2)s1 [Example 435, 5-Phenyl-oxazole-4-carboxylic acid [1-(5-acetyl-thiazol-2-ylmethyl)-1H-pyrazol-4-yl]-amide]	0.445
CC(F)(F)c1ccc(Cn2ccc(NC(=O)c3ncoc3-c3ccccc3)n2)o1 [Example 198, 5-Phenyl-oxazole-4-carboxylic acid {1-[5-(1,1-difluoro-ethyl)-furan-2-ylmethyl]-1H-pyrazol-3-yl}-amide]	0.31
CC(=O)c1ccc(Cn2ccc(NC(=O)c3nc(C)oc3-c3cccc(-c4ccccc4)c3)n2)o1 [Example 354, 5-Biphenyl-3-yl-2-methyl-oxazole-4-carboxylic acid [1-(5-acetyl-furan-2-ylmethyl)-1H-pyrazol-3-yl]-amide]	0.06
CC(F)(F)c1ccc(Cn2cc(NC(=O)c3ncoc3-c3ccccc3)cn2)o1 [Example 200, 5-Phenyl-oxazole-4-carboxylic acid {1-[5-(1,1-difluoro-ethyl)-furan-2-ylmethyl]-1H-pyrazol-4-yl}-amide]	0.046
CC(=O)CCCCn1cc(NC(=O)/C=C/c2ccccc2Cl)cn1 [Example 157, (E)-3-(2-Chloro-phenyl)-N-[1-(5-oxo-hexyl)-1H-pyrazol-4-yl]-acrylamide]	0.33
Cc1ccc(F)c(COC(=O)Nc2ccn(CCCCC(C)(F)F)n2)c1F [Example 282, [1-(5,5-Difluoro-hexyl)-1H-pyrazol-3-yl]-carbamic acid 2,6-difluoro-3-methyl-benzyl ester]	0.025
CC(=O)c1cc(Cn2cc(NC(=O)c3ncoc3-c3ccccc3)cn2)cs1 [Example 408, 5-Phenyl-oxazole-4-carboxylic acid [1-(5-acetyl-thiophen-3-ylmethyl)-1H-pyrazol-4-yl]-amide]	0.083
